Laboratory results as given in US20230295197A1, “STAT5 and STAT6 Degraders and Uses Thereof” (REGENTS OF THE UNIVERSITY OF MICHICAN, priority 2022, published 2023).
Read-outs that look alike come from different tables or passages of the source.

Legend:
STAT5 = test: Immunoblotting (Western blot) analysis of STAT5 degradation efficiency of degraders in treated cells; type: cell-based
Procedure: Evaluation of the degradation efficiency of degraders may be accomplished by immunoblotting analysis. The representative general protocol is the following:
Cells are maintained in the appropriate culture medium with 10% FBS at 37° C. and an atmosphere of 5% CO2. Cell lines are used within three months of thawing fresh vials. Cells are lysed 1× Cell Lysis Buffer (Cell Signaling Technology, #9803), resolved by SDS-PAGE NuPAGE gel (Thermo Fisher Scientific), and transferred to a PVDF membrane (Millipore). Membranes are blocked using Odyssey TBS Blocker Buffer (LI-COR). IRDye 680RD and 800CW Dye-labeled secondary antibodies (LI-COR) are used. The washed membranes are scanned using Odyssey CLx imager (LI-COR). The intensity of Western blot signaling is quantitated using the Odyssey software. Primary antibodies used are: STAT5 Rabbit mAb (Cell Signaling Technology, #94205), STAT6 Rabbit mAb (Cell Signaling Technology, #5397) and GAPDH mouse monoclonal antibody (Santa Cruz Biotechnology, sc-47724).
To evaluate the degradation efficiency of degraders, immunoblotting analysis was performed. The general protocol is the following.
About 1 million cells for each data point were treated with compounds at indicated concentrations and durations. Untreated and treated cells in cell culture medium were transferred into tubes, followed by centrifugation at 3,000 rpm and 4° C. for 6 min Supernatants were removed from tubes and radioimmunoprecipitation assay (RIPA) lysis buffer supplemented with 1% protease inhibitor cocktail (Fisher Scientific cat. PI87786) and phosphatase inhibitor (Roche cat. 04906837001) were added to tubes containing the remaining cell pellets. The tubes were then left on ice for 30 min and placed in a −80° C. freezer. Subsequently they were thawed in 37° C. water, then centrifuged at 14,000 rpm for 15 min and the cell lysates transferred to new tubes. The concentration of total proteins in each tube was calculated using the Pierce BCA protein Assay kit (cat. 23225). Based on the calculated protein concentration, cell lysates containing approximately the same amount of proteins were transferred to new tubes, then distilled water and 4× Protein Sample Loading Buffer for Western Blots (LI-COR cat. 928-40004) supplemented with 20% of mercaptoethanol (Sigma Aldrich cat. M6250) were added on ice. The cell lysates were then reduced and denatured at 95° C. for 5 min. From the tubes containing cell lysates an equal amount of protein samples (20-40 μg) was loaded into precast 8%, 10%, 4%-12%, or 4%-20% Tris-glycine gels (Novex) filled with Tris-glycine SDS running buffer. After the proteins were resolved, they were transferred onto Immobile-FL PVDF Membrane (Millipore Sigma cat. IPFL00010), using Mini Trans-Blot Electrophoretic Transfer Cell (Bio-Rad 1703930). The membranes were blocked with Intercept Blocking Buffer (LI-COR cat. 927-70001) in LI-COR Western Blot boxes for 1 h at rt. The membranes were washed with 1× Tris-buffered saline-Tween-20 (TBST, 1× solution was made from 20×TBST solution, ThermoFisher Scientific cat. 28360) for 5 min 4 times. The membranes were incubated overnight at 4° C. in Intercept Blocking Buffer supplemented with primary antibodies (normally antibody:buffer 1:1000) and Tween-20. The membranes were washed with TBST for 5 min 4 times and were incubated with Intercept Blocking Buffer supplemented with IRDye 800CE Secondary Antibodies, IRDye 680RD Secondary Antibodies (LI-COR biosciences), Tween-20, and 10% SDS solution, for 1 h at rt. The membranes were then washed with TBST for 5 min 4 times and rinsed with deionized water before drying and scanning with Odyssey Dlx Amazing System (LI-COR). The immunoblots were finally quantified by the software.

STAT6 = target: T1, STAT6 (Homo sapiens, UniProt P42226); test: Immunoblotting (Western blot) analysis of STAT6 degradation efficiency of degraders in treated cells; type: cell-based; settings: MOLM-16 cells, class symbols, read-out: DC50 S6 MOLM-16
T1 construct: endogenous in cells; host or cells: MOLM-16, KU-812, SKNO1, MB231, L1236
T1 sequence (P42226 1-847): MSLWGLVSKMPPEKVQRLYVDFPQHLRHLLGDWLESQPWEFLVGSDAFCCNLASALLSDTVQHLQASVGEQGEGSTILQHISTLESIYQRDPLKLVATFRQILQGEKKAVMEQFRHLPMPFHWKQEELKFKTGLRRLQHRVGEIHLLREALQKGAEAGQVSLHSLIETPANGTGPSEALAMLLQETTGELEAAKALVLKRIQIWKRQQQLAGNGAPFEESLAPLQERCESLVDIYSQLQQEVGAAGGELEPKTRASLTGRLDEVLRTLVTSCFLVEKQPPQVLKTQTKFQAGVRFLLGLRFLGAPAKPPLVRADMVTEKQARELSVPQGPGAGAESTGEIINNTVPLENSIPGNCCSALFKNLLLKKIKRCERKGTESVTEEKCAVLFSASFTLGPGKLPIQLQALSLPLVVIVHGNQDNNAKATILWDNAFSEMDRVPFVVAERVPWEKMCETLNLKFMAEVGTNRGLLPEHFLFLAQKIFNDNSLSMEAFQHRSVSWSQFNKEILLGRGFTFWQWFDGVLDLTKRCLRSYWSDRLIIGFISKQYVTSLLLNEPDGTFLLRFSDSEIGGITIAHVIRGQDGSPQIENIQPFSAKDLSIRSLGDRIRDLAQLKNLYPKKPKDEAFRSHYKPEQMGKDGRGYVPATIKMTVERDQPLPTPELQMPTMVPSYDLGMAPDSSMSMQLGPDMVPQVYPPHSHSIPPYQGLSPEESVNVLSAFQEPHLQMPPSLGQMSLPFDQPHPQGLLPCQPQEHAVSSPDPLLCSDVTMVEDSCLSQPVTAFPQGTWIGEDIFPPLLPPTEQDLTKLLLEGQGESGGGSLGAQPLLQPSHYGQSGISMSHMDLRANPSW
Method in brief: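 About 1 million cells per point, grown in 10% FBS medium at 37 °C/5% CO2, were exposed to compound at the indicated concentrations and times, then lysed in RIPA buffer with protease and phosphatase inhibitors. Equal protein (20-40 μg) was resolved by SDS-PAGE, blotted to PVDF, and probed with anti-STAT5, anti-STAT6 and anti-GAPDH antibodies.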

[1] = KU-812 cells, read-out: DC50 S5 KU-812
[2] = MOLM-16 cells, numeric bound, read-out: DC50 S5 MOLM-16

With `CC(C)(C)[C@H](NC(=O)c1cc2cc(C(F)(F)P(=O)(O)O)ccc2s1)C(=O)N1CCC[C@H]1C(=O)N(CCC(=O)N1CCC(Nc2cccc3c2CN(C2CCC(=O)NC2=O)C3=O)CC1)c1ccc(Br)cc1` (stereo partly drawn) [Compound 615, ((2-(((2S)-1-((2S)-2-((4-bromophenyl)(3-(4-((2-(2,6-dioxopiperidin-3-yl)-1-oxoisoindolin-4-yl)amino)piperidin-1-yl)-3-oxopropyl)carbamoyl)pyrrolidin-1-yl)-3,3-dimethyl-1-oxobutan-2-yl)carbamoyl)benzo[b]thiophen-5-yl)difluoromethyl)phosphonic acid] as the molecule, how does the DC50 (STAT5; [1]) read?
Its DC50 is over 10 µM.

And the DC50 (STAT5; [2])?
Its DC50 is over 0.3 µM.

With `CC(C)(C)[C@H](NC(=O)c1cc2cc(C(F)(F)P(=O)(O)O)ccc2s1)C(=O)N1C[C@H](OCc2ccccc2)C[C@H]1C(=O)N(CCC(=O)N1CCC(C#Cc2cccc3c2CN(C2CCC(=O)NC2=O)C3=O)CC1)c1ccc(Br)cc1` (stereo partly drawn) [Compound 621, ((2-(((2S)-1-((2S,4R)-4-(benzyloxy)-2-((4-bromophenyl)(3-(4-((2-(2,6-dioxopiperidin-3-yl)-1-oxoisoindolin-4-yl)ethynyl)piperidin-1-yl)-3-oxopropyl)carbamoyl)pyrrolidin-1-yl)-3,3-dimethyl-1-oxobutan-2-yl)carbamoyl)benzo[b]thiophen-5-yl)difluoromethyl)phosphonic acid] as the molecule, how does the DC50 (STAT5; [2]) read?
Its DC50 is over 0.3 µM.

Which DC50 (STAT5; [2]) does the source give for `CC(C)(C)[C@H](NC(=O)c1cc2cc(C(F)(F)P(=O)(O)O)ccc2s1)C(=O)N1C[C@@H](OCc2ccccc2)C[C@H]1C(=O)N(CCC(=O)NCCCCC#Cc1cccc2c1CN(C1CCC(=O)NC1=O)C2=O)c1ccc(Br)cc1` (stereo partly drawn) [Compound 624, ((2-(((2S)-1-((2S,4S)-4-(benzyloxy)-2-((4-bromophenyl)(3-((6-(2-(2,6-dioxopiperidin-3-yl)-1-oxoisoindolin-4-yl)hex-5-yn-1-yl)amino)-3-oxopropyl)carbamoyl)pyrrolidin-1-yl)-3,3-dimethyl-1-oxobutan-2-yl)carbamoyl)benzo[b]thiophen-5-yl)difluoromethyl)phosphonic acid] here?
The DC50 was over 0.3 µM.

Which DC50 (STAT5; [2]) does the source give for `CC(C)(C)[C@H](NC(=O)c1cc2cc(C(F)(F)P(=O)(O)O)ccc2s1)C(=O)N1C[C@H](OCc2ccccc2)C[C@H]1C(=O)N(CCC(=O)NCCCCCC#Cc1cccc2c1CN(C1CCC(=O)NC1=O)C2=O)c1ccc(Br)cc1` (stereo partly drawn) [Compound 620, ((2-(((2S)-1-((2S,4R)-4-(benzyloxy)-2-((4-bromophenyl)(3-((7-(2-(2,6-dioxopiperidin-3-yl)-1-oxoisoindolin-4-yl)hept-6-yn-1-yl)amino)-3-oxopropyl)carbamoyl)pyrrolidin-1-yl)-3,3-dimethyl-1-oxobutan-2-yl)carbamoyl)benzo[b]thiophen-5-yl)difluoromethyl)phosphonic acid] here?
Its DC50 is over 0.3 µM.

`CCN1CC[C@H]2CC[C@@H](C(=O)N(CCC(=O)N3CCC(Nc4cccc5c4CN(C4CCC(=O)NC4=O)C5=O)CC3)c3ccc(Br)cc3)N2C(=O)[C@@H](NC(=O)c2cc3cc(C(F)(F)P(=O)(O)O)ccc3s2)C1` (stereo partly drawn) [Compound 631, ((2-(((5S,8S,10aR)-8-((4-bromophenyl)(3-(4-((2-(2,6-dioxopiperidin-3-yl)-1-oxoisoindolin-4-yl)amino)piperidin-1-yl)-3-oxopropyl)carbamoyl)-3-ethyl-6-oxodecahydropyrrolo[1,2-a][1,5]diazocin-5-yl)carbamoyl)benzo[b]thiophen-5-yl)difluoromethyl)phosphonic acid] was tested. Which DC50 (STAT5; [2]) did it give?
The DC50 was over 0.3 µM.

With `CCN1CC[C@H]2CC[C@@H](C(=O)N(CCC(=O)NCCCC#Cc3cccc4c3CN(C3CCC(=O)NC3=O)C4=O)c3ccc(Br)cc3)N2C(=O)[C@@H](NC(=O)c2cc3cc(C(F)(F)P(=O)(O)O)ccc3s2)C1` (stereo partly drawn) [Compound 627, ((2-(((5S,8S,10aR)-8-((4-bromophenyl)(3-((5-(2-(2,6-dioxopiperidin-3-yl)-1-oxoisoindolin-4-yl)pent-4-yn-1-yl)amino)-3-oxopropyl)carbamoyl)-3-ethyl-6-oxodecahydropyrrolo[1,2-a][1,5]diazocin-5-yl)carbamoyl)benzo[b]thiophen-5-yl)difluoromethyl)phosphonic acid] as the molecule, how does the DC50 (STAT5; [2]) read?
The DC50 was over 0.3 µM.

For `CN(CCCC#Cc1cccc2c1CN(C1CCC(=O)NC1=O)C2=O)C(=O)CCN(C(=O)[C@@H]1CCCN1C(=O)[C@@H](NC(=O)c1cc2cc(C(F)(F)P(=O)(O)O)ccc2s1)C(C)(C)C)c1ccc2sccc2c1` (stereo partly drawn) [Compound 685, ((2-(((2S)-1-((2S)-2-(benzo[b]thiophen-5-yl(3-((5-(2-(2,6-dioxopiperidin-3-yl)-1-oxoisoindolin-4-yl)pent-4-yn-1-yl)(methyl)amino)-3-oxopropyl)carbamoyl)pyrrolidin-1-yl)-3,3-dimethyl-1-oxobutan-2-yl)carbamoyl)benzo[b]thiophen-5-yl)difluoromethyl)phosphonic acid], which DC50 (STAT5; [1]) is on record?
The DC50 was 0.1 to 1 µM.

What about the DC50 (STAT5; SKNO1 cells, read-out: DC50 S5 SKNO1) of the same molecule?
The DC50 was 0.1 to 1 µM.

For `CCN1CC[C@H]2CC[C@@H](C(=O)N(CCC(=O)NCCCCCC#Cc3cccc4c3CN(C3CCC(=O)NC3=O)C4=O)c3ccc(Br)cc3)N2C(=O)[C@@H](NC(=O)c2cc3cc(C(F)(F)P(=O)(O)O)ccc3s2)C1` (stereo partly drawn) [Compound 629, ((2-(((5S,8S,10aR)-8-((4-bromophenyl)(3-((7-(2-(2,6-dioxopiperidin-3-yl)-1-oxoisoindolin-4-yl)hept-6-yn-1-yl)amino)-3-oxopropyl)carbamoyl)-3-ethyl-6-oxodecahydropyrrolo[1,2-a][1,5]diazocin-5-yl)carbamoyl)benzo[b]thiophen-5-yl)difluoromethyl)phosphonic acid], which DC50 (STAT5; [2]) is on record?
The DC50 was over 0.3 µM.

Which DC50 (STAT6) does the source give for `CC(C)(C)[C@H](NC(=O)c1cc2cc(C(F)(F)P(=O)(O)O)ccc2s1)C(=O)N1C[C@@H](OCC(=O)NCCCCC#Cc2cccc3c2C(=O)N(C2CCC(=O)NC2=O)C3=O)C[C@H]1C(=O)N1CCO[C@H](c2ccccc2)C1` (stereo partly drawn) [Compound 485, ((2-(((2S)-1-((2S,4S)-4-(2-((6-(2-(2,6-dioxopiperidin-3-yl)-1,3-dioxoisoindolin-4-yl)hex-5-yn-1-yl)amino)-2-oxoethoxy)-2-((R)-2-phenylmorpholine-4-carbonyl)pyrrolidin-1-yl)-3,3-dimethyl-1-oxobutan-2-yl)carbamoyl)benzo[b]thiophen-5-yl)difluoromethyl)phosphonic acid] here?
Its DC50 is over 10 µM.
